Results on one molecule are retold here after US4455290A, “Inhibition of fibrin polymerization by a peptide isolated from fibrin Fragment D1” (Research Corporation, priority 1981, dated 1984).

A short description of data set [1]: Elimination from the blood. The conditions noted are these: no method described. The data set is classed as in vivo.
Data set [2] deals with T1, fibrinogen (Homo sapiens, UniProt P02671+P02675+P02679).
T1 construct: purchased Grade L
T1 sequence (P02671 20-644 isoform P02671-2 limits assumed): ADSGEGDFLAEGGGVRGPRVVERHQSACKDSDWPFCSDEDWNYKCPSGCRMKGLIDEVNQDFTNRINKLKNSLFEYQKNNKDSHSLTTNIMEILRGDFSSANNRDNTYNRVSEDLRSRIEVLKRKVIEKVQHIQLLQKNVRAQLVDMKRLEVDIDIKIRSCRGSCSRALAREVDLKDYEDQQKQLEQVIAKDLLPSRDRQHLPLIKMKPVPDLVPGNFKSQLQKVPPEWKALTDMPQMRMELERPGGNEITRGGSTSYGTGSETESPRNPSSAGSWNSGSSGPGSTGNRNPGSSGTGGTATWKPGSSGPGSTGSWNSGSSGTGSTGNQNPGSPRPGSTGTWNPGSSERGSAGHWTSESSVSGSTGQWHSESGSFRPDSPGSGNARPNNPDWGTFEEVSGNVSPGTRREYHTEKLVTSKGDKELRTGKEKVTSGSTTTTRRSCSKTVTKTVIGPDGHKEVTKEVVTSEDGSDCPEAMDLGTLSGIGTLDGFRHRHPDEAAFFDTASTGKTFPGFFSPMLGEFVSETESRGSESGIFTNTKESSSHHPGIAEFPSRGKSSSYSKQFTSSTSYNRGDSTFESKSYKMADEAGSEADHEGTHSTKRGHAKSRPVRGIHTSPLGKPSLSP
T1 sequence (P02675 31-491): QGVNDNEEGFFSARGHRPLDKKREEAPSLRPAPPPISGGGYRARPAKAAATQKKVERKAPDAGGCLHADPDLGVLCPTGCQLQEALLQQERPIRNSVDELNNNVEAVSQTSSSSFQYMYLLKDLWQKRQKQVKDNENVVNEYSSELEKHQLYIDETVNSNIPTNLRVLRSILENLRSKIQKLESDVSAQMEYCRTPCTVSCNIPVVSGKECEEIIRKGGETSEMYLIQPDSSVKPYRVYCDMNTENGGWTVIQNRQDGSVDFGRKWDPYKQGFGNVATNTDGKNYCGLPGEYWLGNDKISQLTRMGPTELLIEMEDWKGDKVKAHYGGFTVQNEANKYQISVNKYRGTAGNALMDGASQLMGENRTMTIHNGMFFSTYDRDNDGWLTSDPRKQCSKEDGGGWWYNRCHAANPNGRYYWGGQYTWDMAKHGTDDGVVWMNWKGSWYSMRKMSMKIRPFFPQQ
T1 sequence (P02679 27-437 isoform P02679-2 limits assumed): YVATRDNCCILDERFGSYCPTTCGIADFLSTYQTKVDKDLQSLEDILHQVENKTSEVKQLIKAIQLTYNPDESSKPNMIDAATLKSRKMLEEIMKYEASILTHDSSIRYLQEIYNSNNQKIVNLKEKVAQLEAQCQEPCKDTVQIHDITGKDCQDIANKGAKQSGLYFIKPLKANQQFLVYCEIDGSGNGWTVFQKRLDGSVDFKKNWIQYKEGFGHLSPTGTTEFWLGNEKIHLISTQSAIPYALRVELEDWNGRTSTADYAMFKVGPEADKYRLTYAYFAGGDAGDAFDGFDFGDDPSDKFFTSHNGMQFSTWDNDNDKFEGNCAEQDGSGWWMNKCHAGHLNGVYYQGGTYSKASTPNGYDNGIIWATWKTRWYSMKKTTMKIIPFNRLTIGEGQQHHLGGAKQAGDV
Description: Equilibrium binding of 125-I D1 Peptide, fibrinogen. From the text:
(§1) Acta 133, 376-379 (1979).

Data set [3] has as its target T2, batroxobin fibrin monomer (Homo sapiens, UniProt P02671+P02675+P02679).
T2 construct: fibrin monomer which was formed by batroxobin (lacking fibrinopeptide A); made in house; host or cells: not recombinant: made from fibrinogen by treatment with batroxobin (Bothrops atrox venom enzyme)
T2 sequence (P02671 36-629 isoform P02671-2): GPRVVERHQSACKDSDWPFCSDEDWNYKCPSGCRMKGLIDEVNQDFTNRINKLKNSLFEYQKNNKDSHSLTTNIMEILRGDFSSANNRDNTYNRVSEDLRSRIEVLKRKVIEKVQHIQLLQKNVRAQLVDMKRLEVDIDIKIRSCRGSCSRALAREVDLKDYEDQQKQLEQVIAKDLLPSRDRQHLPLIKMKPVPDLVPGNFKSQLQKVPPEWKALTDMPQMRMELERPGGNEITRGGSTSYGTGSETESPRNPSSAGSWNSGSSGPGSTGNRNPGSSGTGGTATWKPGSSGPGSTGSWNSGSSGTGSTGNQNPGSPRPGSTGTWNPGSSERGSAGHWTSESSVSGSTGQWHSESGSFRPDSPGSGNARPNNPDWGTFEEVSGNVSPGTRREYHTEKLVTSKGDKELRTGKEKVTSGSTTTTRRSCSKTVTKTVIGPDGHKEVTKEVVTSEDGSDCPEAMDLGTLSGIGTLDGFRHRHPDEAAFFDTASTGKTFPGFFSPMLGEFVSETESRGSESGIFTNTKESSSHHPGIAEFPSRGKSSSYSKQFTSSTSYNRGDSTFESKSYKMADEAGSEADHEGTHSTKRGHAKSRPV
T2 sequence (P02675 31-491): T1 sequence (P02675 31-491)
T2 sequence (P02679 27-437 isoform P02679-2): T1 sequence (P02679 27-437 isoform P02679-2 limits assumed)
Description: Sephadex gel equilibrium binding, batroxobin fibrin monomer. The conditions noted are these: 17 experiments, mean and standard deviation. As for the experimental part: as §1
The purification of NDSK involves incubation of fibrinogen in cyanogen bromide in the presence of 70% formic acid. This treatment may alter the binding sites. Therefore, an attempt was made to reproduce the data using fibrin monomer instead of thrombin-treated NDSK. A major difficulty, the self-polymerization of fibrin monomer, was overcome by using high molar ratios of D1 Peptide to fibrin monomer. However, in this situation the concentration of D1 Peptide could be varied only over a small range of concentrations. D1 Peptide was added to the Sephadex gel equilibrium system and incubated for 10 min., then soluble fibrin monomer was added in a molar excess of D1 Peptide to fibrin monomer of 100-1000 fold. Under these conditions the lag time in the fibrin monomer polymerization was more than 30 min.
In experiments using thrombin fibrin monomer the number of binding sites for D1 Peptide was 1.82±0.26 (15 experiments, mean and standard deviation). For batroxobin fibrin monomer the number of binding sites was 1.91±0.24 (17 experiments, mean and standard deviation).

Peptide text beside a SMILES is read from it.

Turning to `CC[C@H](C)[C@H](NC(=O)[C@H](CCCCN)NC(=O)[C@H](CCSC)NC(=O)[C@@H](NC(=O)[C@@H](NC(=O)[C@H](CCCCN)NC(=O)[C@H](CCCCN)NC(=O)[C@H](CCSC)NC(=O)[C@H](CO)NC(=O)[C@H](Cc1ccc(O)cc1)NC(=O)[C@H](Cc1c[nH]c2ccccc12)NC(=O)[C@H](CCCNC(=N)N)NC(=O)[C@@H](N)[C@@H](C)O)[C@@H](C)O)[C@@H](C)O)C(=O)N[C@H](C(=O)N1CCC[C@H]1C(=O)N[C@@H](Cc1ccccc1)C(=O)N[C@@H](CC(N)=O)C(=O)N[C@@H](CCCNC(=N)N)C(=O)N[C@@H](CC(C)C)C(=O)N[C@H](C(=O)N[C@H](C(=O)NCC(=O)N[C@@H](CCC(=O)O)C(=O)NCC(=O)N[C@@H](CCC(N)=O)C(=O)N[C@@H](CCC(N)=O)C(=O)N[C@@H](Cc1c[nH]cn1)C(=O)N[C@@H](Cc1c[nH]cn1)C(=O)N[C@@H](CC(C)C)C(=O)NCC(=O)NCC(=O)N[C@@H](C)C(=O)N[C@@H](CCCCN)C(=O)N[C@@H](CCC(N)=O)C(=O)N[C@@H](C)C(=O)NCC(=O)N[C@@H](CC(=O)O)C(=O)N[C@H](C(=O)O)C(C)C)[C@@H](C)CC)[C@@H](C)O)[C@@H](C)CC` [D1 Peptide] (H-TRWYSMKKTTMKIIPFNRLTIGEGQQHHLGGAKQAGDV-OH), the “elimination from the blood” value in data set [1] is listed as “rapidly eliminated”. The binding to fibrinogen result in data set [2] is given as “no measurable binding”. In addition, in data set [3], the “number of binding sites for D1 Peptide” value was found to be 1.91±0.24.
